A value given as a limit tells only on which side of the number the result lay.

For data set [1], the system named is Rattus norvegicus. Nature of the data set: Compound evaluated for inhibition of rat paw swelling after ip administration at 0.30 mg/kg and expressed as net swelling in mL of displaced water in delayed phase. The note with it: dose 0.3 mg/kg; route intraperitoneal. The format is functional.
Data set [2] deals with Rattus norvegicus. Description: Compound evaluated for inhibition of rat paw swelling after ip administration at 0.30 mg/kg in delayed phase. The format is functional. The note with it: route intraperitoneal.
Data set [3] addresses T1, Thymidylate synthase (Homo sapiens, UniProt P04818). Description: Inhibitory activity against recombinant human Thymidylate synthase enzyme.
The next data set concerns the target T2, Dihydrofolate reductase (Homo sapiens, UniProt P00374).
T2 sequence (P00374 whole entry): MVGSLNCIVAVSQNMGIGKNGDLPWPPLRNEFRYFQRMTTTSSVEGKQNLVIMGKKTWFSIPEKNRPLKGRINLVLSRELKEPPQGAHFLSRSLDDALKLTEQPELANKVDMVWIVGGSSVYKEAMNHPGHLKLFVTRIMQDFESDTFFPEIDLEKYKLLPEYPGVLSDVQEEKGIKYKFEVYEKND
Nature of the data set: Inhibitory activity against recombinant human dihydrofolate reductase (DHFR).

Data set [4] addresses T3, Trifunctional purine biosynthetic protein adenosine-3 (Mus musculus, UniProt Q64737).
T3 sequence (Q64737 whole entry): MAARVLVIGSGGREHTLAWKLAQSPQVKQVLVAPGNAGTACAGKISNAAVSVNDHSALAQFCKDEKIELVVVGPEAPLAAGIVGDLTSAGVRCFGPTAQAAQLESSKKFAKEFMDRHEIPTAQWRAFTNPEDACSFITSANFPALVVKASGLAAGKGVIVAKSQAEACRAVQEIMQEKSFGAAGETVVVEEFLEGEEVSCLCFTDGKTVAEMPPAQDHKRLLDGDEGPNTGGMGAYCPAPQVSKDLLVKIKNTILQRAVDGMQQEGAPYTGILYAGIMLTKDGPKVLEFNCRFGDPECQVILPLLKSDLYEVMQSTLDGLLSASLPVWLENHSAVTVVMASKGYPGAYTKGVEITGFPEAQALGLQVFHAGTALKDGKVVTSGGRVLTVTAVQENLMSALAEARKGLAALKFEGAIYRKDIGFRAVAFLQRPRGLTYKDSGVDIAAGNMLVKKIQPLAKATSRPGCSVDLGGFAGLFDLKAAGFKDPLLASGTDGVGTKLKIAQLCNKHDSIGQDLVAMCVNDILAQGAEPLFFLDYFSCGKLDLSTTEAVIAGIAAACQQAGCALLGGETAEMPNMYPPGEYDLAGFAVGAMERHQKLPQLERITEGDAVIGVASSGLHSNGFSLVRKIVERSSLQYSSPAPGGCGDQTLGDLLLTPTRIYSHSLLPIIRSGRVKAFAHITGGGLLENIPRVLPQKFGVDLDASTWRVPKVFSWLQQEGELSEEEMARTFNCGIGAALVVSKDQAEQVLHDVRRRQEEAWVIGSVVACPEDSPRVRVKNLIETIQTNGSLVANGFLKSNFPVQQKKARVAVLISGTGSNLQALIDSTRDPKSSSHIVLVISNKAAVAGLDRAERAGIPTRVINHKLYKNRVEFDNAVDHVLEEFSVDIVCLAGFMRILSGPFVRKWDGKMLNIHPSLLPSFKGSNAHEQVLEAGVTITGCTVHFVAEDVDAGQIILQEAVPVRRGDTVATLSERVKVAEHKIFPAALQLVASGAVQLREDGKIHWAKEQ
Description: Inhibitory activity against murine glycinamide ribonucleotide formyltransferase (GARFT) enzyme.

Data set [5] in a line: Vmax/Km value was determined.
For data set [6], the system named is Rattus norvegicus. Description: Compound evaluated for inhibition of rat paw swelling after ip administration at 0.06 mg/kg and expressed as net swelling in mL of displaced water in acute phase. It counts as functional. To be noted: route intraperitoneal.
The subject of data set [7] is Rattus norvegicus. Nature of the data set: Compound evaluated for inhibition of rat paw swelling after ip administration at 0.125 mg/kg and expressed as net swelling in mL of displaced water in delayed phase. The format is functional. The note with it: route intraperitoneal.
The subject of data set [8] is Rattus norvegicus. Nature of the data set: Compound evaluated for inhibition of rat paw swelling after ip administration at 0.125 mg/kg in delayed phase. The format is functional. To be noted: route intraperitoneal.
In data set [9] the test system is Rattus norvegicus. Nature of the data set: Compound evaluated for inhibition of rat paw swelling after ip administration at 0.125 mg/kg and expressed as net swelling in mL of displaced water in acute phase. The format is functional. The note with it: route intraperitoneal.
The test system of data set [10] is Rattus norvegicus. Nature of the data set: Compound evaluated for inhibition of rat paw swelling after ip administration at 0.06 mg/kg in acute phase. The note with it: route intraperitoneal. The format is functional.
The test system of data set [11] is Rattus norvegicus. Nature of the data set: Compound evaluated for inhibition of rat paw swelling after ip administration at 0.06 mg/kg in delayed phase. It counts as functional. To be noted: route intraperitoneal.
Data set [12] has as its system Rattus norvegicus. Nature of the data set: Compound evaluated for inhibition of rat paw swelling after ip administration at 0.125 mg/kg in acute phase. It counts as functional. The note with it: route intraperitoneal.
For data set [13], the target named is T1, Thymidylate synthase. Description: Inhibitory activity against recombinant human Thymidylate synthase.
Data set [14] concerns Rattus norvegicus. Nature of the data set: Compound evaluated for inhibition of rat paw swelling after ip administration at 0.06 mg/kg and expressed as net swelling in mL of displaced water in delayed phase. The format is functional. To be noted: route intraperitoneal.
Substrate in data set [15]: C[C@](CCC(=O)O)(NC(=O)c1ccc(CCC2CNc3nc(N)nc(N)c3C2)s1)C(=O)O
Description: (§1) Maximum rate of metabolism by hog liver folyl-poly-glutamate synthetase (FPGS) was determined. To be noted: Sus scrofa.

Substrate in data set [16]: Nc1nc(O)c2c(n1)NCC(CCc1ccc(C(=O)NC(CCC(=O)O)C(=O)O)cc1)C2
Described as §1. The note with it: Sus scrofa.

Substrate in data set [17]: C[C@](CCC(=O)O)(NC(=O)c1ccc(CCC2CNc3nc(N)nc(N)c3C2)cc1)C(=O)O
The data set is described as §1. The note with it: Sus scrofa.

Substrate in data set [18]: C[C@](CCC(=O)O)(NC(=O)c1ccc(CCC2CNc3nc(N)nc(N)c3C2)o1)C(=O)O
The data set is described as §1. To be noted: Sus scrofa.

Substrate in data set [19]: C[C@](CCC(=O)O)(NC(=O)c1ccc(CCC2CNc3nc(N)nc(N)c3C2)s1)C(=O)O
Nature of the data set: (§2) Michaelis-Menten constant for hog liver folyl-poly-glutamate synthetase (FPGS). The note with it: Sus scrofa.

Substrate in data set [20]: Nc1nc(O)c2c(n1)NCC(CCc1ccc(C(=O)NC(CCC(=O)O)C(=O)O)cc1)C2
The data set is described as §2. To be noted: Sus scrofa.

Substrate in data set [21]: C[C@](CCC(=O)O)(NC(=O)c1ccc(CCC2CNc3nc(N)nc(N)c3C2)cc1)C(=O)O
The description is as §2. To be noted: Sus scrofa.

Substrate in data set [22]: C[C@](CCC(=O)O)(NC(=O)c1ccc(CCC2CNc3nc(N)nc(N)c3C2)o1)C(=O)O
The data set is described as §2. To be noted: Sus scrofa.

T1 sequence (P04818 whole entry): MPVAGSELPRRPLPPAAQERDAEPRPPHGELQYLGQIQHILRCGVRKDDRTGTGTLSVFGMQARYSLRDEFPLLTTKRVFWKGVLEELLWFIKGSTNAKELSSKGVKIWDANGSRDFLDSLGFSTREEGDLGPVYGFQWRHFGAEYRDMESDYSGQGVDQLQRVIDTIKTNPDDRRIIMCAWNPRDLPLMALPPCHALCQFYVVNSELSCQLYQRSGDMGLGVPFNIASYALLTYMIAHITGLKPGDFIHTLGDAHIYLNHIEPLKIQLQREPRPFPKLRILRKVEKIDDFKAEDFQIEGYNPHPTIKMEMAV

For the molecule `C[C@]12CCC(=O)C=C1CCC1[C@@H]2[C@@H](O)C[C@@]2(C)[C@H]1CC[C@]2(O)C(=O)CO` (single isomer, unassigned) [HYDROCORTISONE], the “Net Swelling” value in the data set on Rattus norvegicus [1] stood at 0.09. In addition, the inhibition in vivo at 0.3 mg/kg in the data set with Rattus norvegicus [2] came out at 36%.
Consider `C[C@](CCC(=O)O)(NC(=O)c1ccc(CCC2CNc3nc(N)nc(N)c3C2)o1)C(=O)O` (some centres not stated), for which the Ki was greater than 5000 nM at Thymidylate synthase [3], 9.87 nM on Dihydrofolate reductase and 710 nM in data set [4]. In data set [5], the Vmax / Km stood at 9.2.
As to `C[C@](CCC(=O)O)(NC(=O)c1ccc(CCC2CNc3nc(N)nc(N)c3C2)cc1)C(=O)O` (some centres not stated), the “Net Swelling” value with Rattus norvegicus [6] came out at 0.82; in the data set on Rattus norvegicus [7] it was 0.12; in the data set with Rattus norvegicus [9] it was 0.55; with Rattus norvegicus [14], 0.15. Besides, the figures for the inhibition in vivo at 0.125 mg/kg with Rattus norvegicus [8] and in the data set with Rattus norvegicus [12] were 14% and 35%, respectively. Moreover, the Ki on Dihydrofolate reductase is 0.29 nM; in [4], 56000 nM; on Thymidylate synthase [13], greater than 5000 nM. Besides, the Vmax / Km in data set [5] was found to be 40. For the same molecule, the inhibition in vivo at 0.06 mg/kg in the data set with Rattus norvegicus [10] and in the data set with Rattus norvegicus [11] was 0% each time.
Take `C[C@](CCC(=O)O)(NC(=O)c1ccc(CCC2CNc3nc(N)nc(N)c3C2)s1)C(=O)O` (some centres not stated): the Ki was greater than 5000 nM at Thymidylate synthase [3], 0.69 nM on Dihydrofolate reductase and 9200 nM in [4]. In addition, the Vmax / Km in data set [5] amounted to 98.
For `Nc1nc(O)c2c(n1)NCC(CCc1ccc(C(=O)NC(CCC(=O)O)C(=O)O)cc1)C2` (configuration not stated), in data set [5], the Vmax / Km was 60.
The same measure, in the same setting: with `CN(Cc1cnc2nc(N)nc(N)c2n1)c1ccc(C(=O)N[C@@H](CCC(=O)O)C(=O)O)cc1` the figure was 4.3.

B1: Folylpolyglutamate synthase, mitochondrial (Homo sapiens), Q05932 (protein)
chain: MSRARSHLRAALFLAAASARGITTQVAARRGLSAWPVPQEPSMEYQDAVRMLNTLQTNAGYLEQVKRQRGDPQTQLEAMELYLARSGLQVEDLDRLNIIHVTGTKGKGSTCAFTECILRSYGLKTGFFSSPHLVQVRERIRINGQPISPELFTKYFWRLYHRLEETKDGSCVSMPPYFRFLTLMAFHVFLQEKVDLAVVEVGIGGAYDCTNIIRKPVVCGVSSLGIDHTSLLGDTVEKIAWQKGGIFKQGVPAFTVLQPEGPLAVLRDRAQQISCPLYLCPMLEALEEGGPPLTLGLEGEHQRSNAALALQLAHCWLQRQDRHGAGEPKASRPGLLWQLPLAPVFQPTSHMRLGLRNTEWPGRTQVLRRGPLTWYLDGAHTASSAQACVRWFRQALQGRERPSGGPEVRVLLFNATGDRDPAALLKLLQPCQFDYAVFCPNLTEVSSTGNADQQNFTVTLDQVLLRCLEHQQHWNHLDEEQASPDLWSAPSPEPGGSASLLLAPHPPHTCSASSLVFSCISHALQWISQGRDPIFQPPSPPKGLLTHPVAHSGASILREAAAIHVLVTGSLHLVGGVLKLLEPALSQ
Regarding B1, the maximal velocity (Vmax) in [15] worked out at 1140 nM/h/mg; in [16], 977 nM/h/mg; in data set [17], 1190 nM/h/mg; in [18] it was 696 nM/h/mg. Also, the Km in data set [19] turned out to be 11.6 µM; in data set [20], 16.4 µM; in data set [21], 28.2 µM; in [22], 75.3 µM.

These data come from ChEMBL document CHEMBL1132123, “The synthesis and biological activity of a series of 2,4-diaminopyrido[2,3-d]pyrimidine based antifolates as antineoplastic and antiarthritic agents” (Bioorg Med Chem Lett, 1999).
